# Target: β2AR (Homo sapiens, UniProt P07550)
# Experiment: cAMP measurement by ELISA in HEK 293 cells stably overexpressing β2AR
# Assay type: cell-based
# Method: Schematic of screening methodologies for cAMP production and β-arrestin binding. Cells were treated with the unbiased beta-agonist isoproterenol (ISO)±test compounds. The primary high throughput screen utilized a luciferase-based cAMP biosensor, GLOSENSORTM (Promega), and an enzyme complementation-based assay, […]® (DiscoveRx). Independent secondary screening utilized a cAMP ELISA and BRET for β-arrestin recruitment. […] Secondary screen for cAMP production by ELISA. […] Cells were lysed and cAMP production was measured. […] Dose response curve for DFPQ as measured by BRET. […] Data for dose response curve was taken 12 min post ISO addition. n=3. […] Cells were lysed and cAMP production was measured by ELISA. […] Cells were read every three minutes for 18 minutes on a PolarStar Optima plate reader (BMG) to establish peak signal. […] Luminescence was determined at room temperature (23-25° C.) on a PolarStar Optima plate reader (BMG). […] Relative assay bias was calculated from the ratio of normalized cAMP and arrestin recruitment responses. […] BRET was measured using a Tecan Infinite F500 microplate reader. […] Bound [35 S]GTPγS was collected by rapid filtration on GF/B filters, washed 4 times with 4 ml of cold GTPγS wash buffer and analyzed by liquid scintillation counting. […] Immunoprecipitated proteins were separated by SDS-PAGE and analyzed by western blot using a β2AR C-terminal tail or phospho-specific antibody. […]
# Sequence of β2AR (P07550 whole entry): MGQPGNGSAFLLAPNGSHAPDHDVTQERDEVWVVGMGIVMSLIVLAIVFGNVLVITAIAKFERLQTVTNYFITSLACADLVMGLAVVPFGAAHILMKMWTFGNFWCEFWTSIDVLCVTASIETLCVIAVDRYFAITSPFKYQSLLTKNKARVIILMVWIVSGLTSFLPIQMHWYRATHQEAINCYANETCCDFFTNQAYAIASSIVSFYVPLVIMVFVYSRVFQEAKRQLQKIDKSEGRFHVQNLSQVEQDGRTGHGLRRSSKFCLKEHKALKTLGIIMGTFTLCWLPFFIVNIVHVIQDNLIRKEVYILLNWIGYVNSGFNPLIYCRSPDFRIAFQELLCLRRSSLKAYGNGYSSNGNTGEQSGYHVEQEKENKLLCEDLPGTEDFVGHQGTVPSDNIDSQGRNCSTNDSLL
smiles,measurement,setting,value
"Fc1ccc(Nc2nc(NC3CCCCC3)c3ccccc3n2)cc1F [DFPQ, N^4-cyclohexyl-N^2-(3,4-difluorophenyl)quinazoline-2,4-diamine]",effect on ISO-stimulated cAMP production,"10 μM DFPQ, 1 μM ISO 10 min, FIG. 1B",no effect
same,"effect on ISO dose response curves, cAMP production readout","increasing concentrations up to 10 μM DFPQ, FIG. 1E",no effect

# — patent publication US20240166626A1, “Compounds and Methods for Preventing, Treating, or Ameliorating Airway Disease” (THOMAS JEFFERSON UNIVERSITY, priority 2021, published 2024)
